The values below come from patent US3963706A, “Sulphamoylphenyl-imidazolidinones” (Ed. Geistlich Sohne A.G. fur Chemische Industrie, priority 1972, dated 1976).

The subject of data set [1] is Grand Mal. The data set is described as follows: Electro shock test, rat. The format is in vivo. An excerpt: (§1) In general, the majority of the available antiepileptic drugs are active against either Grand Mal or Petit Mal epilepsy but not against both forms.
(§2) As mentioned above, the compounds according to the present invention show interesting activity against both Grand Mal and Petit Mal forms of epilepsy. This activity is indicated respectively by the electro shock test and the Cardiazol shock test.

The subject of data set [2] is Petit Mal. The data set is described as follows: Cardiazol shock test. The format is in vivo. Particulars: species not given.
Description: as §1, §2

The test system of data set [3] is Grand Mal. The data set is described as follows: Electro shock test, mouse. The format is in vivo.
Description: as §1, §2

The format of data set [4] is in vivo. Particulars: up to 500 mg/kg. An excerpt: It will be noted that the ratio of ED50 /LD50 for the compounds according to the invention is particularly favourable.

For orientation: ED50 means the dose at which the effect has come halfway, by size or by number of responders. The low end stands for an effect at a small dose, the high end for a need for a large dose. As for `CC1C(=O)N(c2ccc(S(N)(=O)=O)cc2Cl)CN1c1ccccc1` (stereo not drawn) [Example 18, 5-Methyl-1-phenyl-3-(2-chloro-4-sulphamoylphenyl)-imidazolidin-4-one], the figures for the ED50 in data set [1] and in data set [2] were 10 mg/kg and 50 mg/kg, respectively.

With `NS(=O)(=O)c1ccc(N2CN(c3ccccc3)CC2=O)c(F)c1` [Example 2, 1-Phenyl-3-(2-fluoro-4-sulphamoylphenyl)-imidazolidin-4-one], the results for the ED50 in data set [1], in data set [3] and in data set [2] were 10 mg/kg, 10 mg/kg and 50 mg/kg, respectively.

Consider `NS(=O)(=O)c1ccc(N2CN(c3ccccc3)CC2=O)c(Cl)c1` [Example 3, 1-Phenyl-3-(2-Chloro-4-sulphamoylphenyl)-imidazolidin-4-one], for which the results for the ED50 in data set [1], in data set [3] and in data set [2] were 5 mg/kg, 1 mg/kg and 50 mg/kg, respectively. Besides, the sedative activity entry in data set [4] is listed as “virtually no sedative activity”.

In the case of `NS(=O)(=O)c1ccc(N2CN(C3CCCCC3)CC2=O)c(Cl)c1` [Example 19, 1-Cyclohexyl-3-(2-chloro-4-sulphamoylphenyl)-imidazolidin-4-one], the ED50 amounted to 25 mg/kg in data set [1], 10 mg/kg in data set [3] and 200 mg/kg in data set [2].

For `NS(=O)(=O)c1ccc(N2C(=O)CN(c3ccccc3)C2=O)c(Cl)c1` [Example 8, 1-Phenyl-3-(2-chloro-4-sulphamoylphenyl)-hydantoin], the figures for the ED50 in data set [1], in data set [3] and in data set [2] were 10 mg/kg, 5 mg/kg and 100 mg/kg, respectively.

Turning to `NS(=O)(=O)c1ccc(N2CN(c3ccccc3)CC2=O)c(Br)c1` [Example 5, 1-Phenyl-3-(2-bromo-4-sulphamoylphenyl)imidazolidin-4-one], the results for the ED50 in data set [1], in data set [3] and in data set [2] were 5 to 10 mg/kg, 5 mg/kg and 50 mg/kg, respectively.
